From paper PMC7143835, “Anti-Hyperglycemic Effects of Green Crab Hydrolysates Derived by Commercially Available Enzymes” (Foods, 2020) come the findings set out here.

A word on the IC50: it is the point on the concentration scale where inhibition reaches its midpoint.

This assay concerns the target T1, rat intestinal α-glucosidase.
T1 construct: gene Si; crude buffer extract of rat intestinal acetone powder; mixture of brush-border alpha-glucosidases
Briefly: p-nitrophenyl glucopyranoside hydrolysis, absorbance at […] nm. Type of assay: biochemical. The following applies: 5 mM p-NPG stock (printed as beta anomer; 50 µL in 200 µL assay), 0.1 M sodium phosphate pH 6.9, 0.9% NaCl, 37 °C, 10 min preincubation; positive control; crude extract.

Values after ≈ are worked out from the molar mass of the structure shown.

For the compound `C[C@H]1O[C@H](O[C@H]2[C@H](O)[C@@H](O)[C@@H](O[C@H]3[C@H](O)[C@@H](O)C(O)O[C@@H]3CO)O[C@@H]2CO)[C@H](O)[C@@H](O)[C@@H]1N[C@H]1C=C(CO)[C@@H](O)[C@H](O)[C@H]1O` (stereo partly shown) [acarbose], the IC50 was 0.027 mg/mL (≈ 41.8 µM).
